Laboratory results as given in patent US12240811B2, “N-heterocyclic five-membered ring-containing capsid protein assembly inhibitor, pharmaceutical composition and uses thereof” (CHIA TAI TIANQING PHARMACEUTICAL GROUP CO., LTD., priority 2019, dated 2025).

Tests used:
[1] = tested on: HBV DNA in HepG2.2.15 cells; assay: In vitro cell HBV DNA inhibitory activity in HepG2.2.15 cells; format: cell-based; details: Hepatitis B virus, 144 h, 6 days treatment, intracellular capsid HBV DNA by qPCR, read-out: EC50, anti-HBV activity in HepG2.2.15 cells
Description: A bottle of HepG2.2.15 (Wuhan Institute of Virology) or HepAD38 cells in good exponential growth state was taken, washed once by adding 5 mL PBS, and then thereto was added 3 mL trypsin. After digesting at room temperature for 5 min, 2 mL trypsin was discarded, and then the sample was placed in a cell culture incubator and digested for 10 min. The cells were taken out and observed under a microscope (whether the cells were individually round and there was no adhesion between the cells). 10 mL complete medium was added to terminate the digestion. After pipetting into a single cell suspension, 10 μL of the cell suspension was taken out for cell counting with a cell counter, and then diluted with a complete medium and adjusted to a cell density of 1*10^5 cells/mL. […]
Compounds dissolved in DMSO were subjected to two-fold gradient dilution (10 concentrations in total) with complete medium. […] After lysing at room temperature for 10 min, DNA was extracted, and HBV DNA in the intracellular viral capsid was measured by real-time fluorescence quantitative PCR. The inhibition rate was calculated based on the Ct value, and the EC50 value was calculated by the four-parameter method.

[2] = Stability of liver microsomes in vitro, mouse; format: in vitro ADME
Description: (§1) 300 μL of a final incubation system contains 30 μL of liver microsomes (protein concentration: 0.15 mg/mL, Corning), 30 μL NADPH+MgCl2, 3 μL substrate (formulated with acetonitrile), and 237 μL PBS buffer. Duplicate incubation systems of 0.3 mL each were formulated for each species. A total volume of 270 μL of a uniformly mixed solution of the substrate and the enzyme was formulated in each tube, the solution and NADPH were pre-incubated at 37° C. for 5 minutes, respectively. Then 30 μL of the mixed solution of NADPH+MgCl2 was added for reaction. 50 μL of the reaction solution was taken out at 0, 10, 30, and 60 mins, and the reaction was terminated with 300 μL of ice acetonitrile containing an internal standard.
(§2) Sample pre-treatment: To 50 μL of the incubated sample was added 300 μL of ice acetonitrile containing diazepam as an internal standard and then precipitated. After vortexing for 5 minutes, the sample was centrifugated (12000 rpm, 4° C.) for 10 minutes. 75 μL of the supernatant was pipetted into a 96-well plate, and then diluted with 75 μL ultrapure water and mixed uniformly. 0.5 μL of the resulting solution was injected and analyzed by LC-MS/MS.

[3] = tested on: HBV DNA in serum; assay: pAAV/HBV mouse model; format: in vivo, C57BL/6 mice; details: 3 mpk intragastric once daily
Description: 6-8 week old male C57BL/6 mice (Shanghai Lingchang Biotechnology Co., Ltd.) were used, and each mouse was injected with purified recombinant plasmid pAAV/HBV1.2 ([…]) dissolved in PBS equivalent to a volume of about 10% of its body weight through the tail vein within 3-8 s. Blood was collected from the orbits of the mice at 3 days after the plasmid injection to detect serum HBV DNA. The model mice having uniform serum DNA were selected and divided into: a model control group, a vehicle control group, and a test substance group. Mice in each group were continuously administered intragastrically once daily for 10 days at a dose of 3 mg/kg. The mouse serum was taken on day 0, 4, 7, and 10 after the administration, and the mice were sacrificed on day 10 to take liver tissue samples. The HBV DNA copy numbers in serum and liver of the mice were detected by fluorescent quantitative PCR method.

[4] = Stability of liver microsomes in vitro, human; format: in vitro ADME
Description: as §1, §2

[5] = Stability of liver microsomes in vitro, rat; format: in vitro ADME
Description: as §1, §2

## Cc1[nH]c(C(=O)C(=O)N[C@H](C)C(F)(F)F)c(C)c1C(=O)Nc1ccc(F)c(C#N)c1 [Example 2, (R)—N-(3-cyano-4-fluorophenyl)-2,4-dimethyl-5-(2-oxo-2-((1,1,1-trifluoroprop-2-yl)amino)acetyl)-1H-pyrrole-3-carboxamide]
[1]
  EC50: 10.7 nM
[2]
  Remaining (%) of mouse liver microsomes at 60 min: 100%
[3]; Day 4
  Reduction levels (log10) of HBV DNA in serum, Day 4: 2.92 log10
[3]; Day 7
  Reduction levels (log10) of HBV DNA in serum, Day 7: 4.09 log10
[3]; Day 10
  Reduction levels (log10) of HBV DNA in serum, Day 10: 2.42 log10
[4]
  Remaining (%) of human liver microsomes at 60 min: 100%
[5]
  Remaining (%) of rat liver microsomes at 60 min: 99%
